In patent US20160192626A1, “Method For Creating Endometriotic Cells And Endometriosis Model Animal” (KYOTO UNIVERSITY, priority 2013, published 2016):

system: endometriotic-like cells; experiment: Estrogen (E2) production ability of endometriotic-like cells from androgens of adrenal origin, Estradiol EIA; type: cell-based, human; details: final concentration 1 mM, 48 hours, cells produced in the step (3)
Description: In this Experimental Example, the cells produced in the step (3) were confirmed for their ability to produce estradiol (E2), which was an estrogen. The cells (1×10^5 cells) produced in the step (3) were added to 1 ml of a low-carbon-source proliferation culture medium supplemented with bovine serum albumin (BSA) at 0.1% (v/v) in place of FBS, inoculated into a 12-well plate having a surface coated with collagen type I (derived from rat tail, BD Biosciences, Cat. No. 354236), and cultured for 24 hours at 37° C. in the presence of 5% CO2.
After that, A-dione (Tokyo Chemical Industry Co., Ltd.; androstenedione), DHEA (Tokyo Chemical Industry Co., Ltd.), or DHEA-sulfate (Tokyo Chemical Industry Co., Ltd.; DHEA-S, inactivated adrenal androgen), which was an androgen of adrenal origin, was added to the culture medium so that the final concentration became 1 mM, and the cells were further cultured for 48 hours. As a control (vehicle), the cells were cultured in the same manner as described above except that dimethylsulfoxide (DMSO), which was a solvent, was added in place of the androgen.
The concentration of E2 in the culture supernatant was measured by using Estradiol EIA kit (Cayman Chemical, Cat. No. 582251) according to the manual of the kit.

| Structure (SMILES) | E2 production from the added androgen (concentration of E2 in the culture supernatant) |
| --- | --- |
| C[C@]12CC[C@H](O)CC1=CC[C@@H]1[C@@H]2CC[C@]2(C)C(=O)CC[C@@H]12 [DHEA, dehydoepiandorosterone] | produced E2 |
| C[C@]12CCC(=O)C=C1CC[C@@H]1[C@@H]2CC[C@]2(C)C(=O)CC[C@@H]12 [A-dione, androstenedione] | produced E2 |
| C[C@]12CC[C@H](OS(=O)(=O)O)CC1=CC[C@@H]1[C@@H]2CC[C@]2(C)C(=O)CC[C@@H]12 [DHEA-S, DHEA-sulfate] | did not produce E2 |
